According to publication PMC12812255 (ACS infectious diseases, 2025):
In brackets after ≈: the same amount, converted by molar mass. Where two headings read alike, the source gives them in different places.

Assays:
Cytotoxicity CCK-8 [1] = conditions: human, CCF-STTG1 cells, CC50 CCF-STTG1, 48 h
MtbADSL [2] = target: T1, MtbADSL (Mycobacterium tuberculosis, UniProt I6XWA1); test: Gel-based thermal shift assay; format: binding; conditions: 15 or 30 μM compound, MtbADSL 5 μM
Cytotoxicity CCK-8 [3] = conditions: human
A549 cells = test: Cytotoxicity CCK-8; conditions: at the MIC determined for H37Rv
human ADSL (huADSL) = target: T2, human ADSL (huADSL) (Homo sapiens, UniProt P30566); test: Human ADSL PPDK-AMP assay; format: biochemical; conditions: for SI, selectivity index, IC50-human/IC50-Mtb: PPDK-coupling assay
T2 sequence (P30566 1-484): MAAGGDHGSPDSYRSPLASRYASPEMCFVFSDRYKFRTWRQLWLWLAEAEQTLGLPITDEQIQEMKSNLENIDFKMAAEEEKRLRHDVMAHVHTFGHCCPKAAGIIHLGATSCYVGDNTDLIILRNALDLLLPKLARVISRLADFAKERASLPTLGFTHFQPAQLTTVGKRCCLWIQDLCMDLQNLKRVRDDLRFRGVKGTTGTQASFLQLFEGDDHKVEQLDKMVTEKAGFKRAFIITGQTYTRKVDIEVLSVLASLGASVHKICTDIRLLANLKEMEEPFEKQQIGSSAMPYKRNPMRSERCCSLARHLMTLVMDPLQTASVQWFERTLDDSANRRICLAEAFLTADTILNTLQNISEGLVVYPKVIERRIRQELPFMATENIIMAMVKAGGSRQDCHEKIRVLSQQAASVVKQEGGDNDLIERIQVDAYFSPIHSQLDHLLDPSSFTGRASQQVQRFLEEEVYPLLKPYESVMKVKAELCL

M. tuberculosis H37Ra = test: Antibacterial susceptibility, broth dilution, AlamarBlue; format: cell-based; conditions: Mycobacterium tuberculosis, read-out: MIC H37Ra
MtbADSL [4] = target: T1, MtbADSL; test: PPDK-luciferase coupling Mtb ADSL enzyme assay; format: biochemical
[5] = target: coupling enzymes, PPDK and luciferase; test: ADSL-free PPDK-luciferase coupling enzyme assay; format: biochemical, Clostridium symbiosum (PPDK); firefly (luciferase); conditions: read-out: IC50 ADSL-free; no ADSL, AMP 10 μM as substrate
[6] = system: intracellular Mtb H37Ra in RAW264.7 macrophages; test: Phagocytosis assay, intracellular bacterial load in RAW264.7 macrophages
Mycobacterium abscessus = conditions: cited from earlier work
Cytotoxicity CCK-8 [7] = conditions: human, HEK293 cells
MtbADSL [8] = target: T1, MtbADSL; test: AMP-Glo Mtb ADSL assay; format: biochemical
MtbADSL [9] = target: T1, MtbADSL; test: Fluorescence polarization; format: biochemical
M. tuberculosis H37Rv = test: Antibacterial susceptibility, OD600, MIC estimated as EC90; format: cell-based; conditions: Mycobacterium tuberculosis, read-out: MIC H37Rv (estimated by EC90)
Mtb H37Ra = test: AMP rescue assay; format: cell-based, Mycobacterium tuberculosis; conditions: compound at MIC, AMP 0-5 mM, 7 days
in vitro [10] = conditions: human
MtbADSL [11] = target: T1, MtbADSL; test: Protein thermal shift assay; format: binding; conditions: compound together with 4-HNE, 10 μM
in vitro [12] = conditions: human, CC50 CCF-STTG1

SMILES	Protection of MtbADSL from heat-induced denaturation and aggregation (MtbADSL [2])	IC50 (human ADSL (huADSL)) [µM]	MIC (M. tuberculosis H37Ra; 168 h) [µg/mL]	MIC (M. tuberculosis H37Ra) [µM]	IC50 (MtbADSL [4]) [µM]	IC50 [5] [µM]	Reduction of intracellular Mtb growth ([6]; 5 μM)	Reduction of intracellular Mtb growth ([6]; 15 μM)	IC50 (MtbADSL [8]) [µM]	IC50 (MtbADSL [9]) [µM]	MIC (M. tuberculosis H37Rv) [µM]	also measured
Oc1c(Cl)cc(Cl)cc1Sc1cc(Cl)cc(Cl)c1O [bithionol]	dose-dependent protection	14.7	3.1	8.7	1.6	21.6	~ 2.3 log	4.6 log	1.2	6.2	28 (≈ 9.97 µg/mL)	CC50 at 48 h (Cytotoxicity CCK-8 [1]): ~139 µM; CC50 at 48 h (Cytotoxicity CCK-8 [3]): 32.4 µM; Reduction of A549 cell viability (A549 cells): ~ 45%; SI, selectivity index, IC50-human/IC50-Mtb (human ADSL (huADSL)): 9.2; MIC against Mycobacterium abscessus (Mycobacterium abscessus): 0.625 to 2.5 µM; CC50 at 48 h (Cytotoxicity CCK-8 [7]): 19.3 µM; AMP concentration at which growth is rescued (Mtb H37Ra): 5.0 mM
O=C(O)Cc1cc(I)c(Oc2cc(I)c(O)c(I)c2)c(I)c1 [Tetrac, tetraiodothyroacetic acid]	dose-dependent protection	22.4	6.2	8.3	4.8	24.5	~ 1 log	~ 2.5 log	1.6	13	30 (≈ 22.4 µg/mL)	viability at 48 h (in vitro [10]): ~71%; SI, selectivity index, IC50-human/IC50-Mtb (human ADSL (huADSL); listed as TT): 4.7; Reduction of Tm on co-incubation with 4-HNE (MtbADSL [11]): ~ 0.6 °C; CC50 at 48 h (in vitro [12]): > 200 µM
CCCCCC(O)/C=C/C=O (stereo not shown) [4-HNE, 4-hydroxynonenal]												IC50 (MtbADSL [4]; read-out: IC50-Mtb PPDK, PPDK-luciferase coupling assay, SAMP 20 μM): 2.6 µM
